# Measured values from US11046691B1 (IDEAYA BIOSCIENCES, INC., priority 2018, dated 2021).
# Molecular target: hMAT2A (Homo sapiens (Human), UniProt P31153)
# Experiment: Phosphate Sensor Fluorescence Assay (MAT2A enzyme inhibition)
# Type: biochemical
# Conditions: L-methionine 500 uM, ATP 500 uM, class symbols
# Outline: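 Recombinant MAT2A preincubated 15 min at room temperature with compound, then reacted 1 h at room temperature with 500 uM L-methionine and 500 uM ATP in Tris pH 7.5 buffer containing PNP/7-MEG.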
# Chain of hMAT2A (P31153 whole entry): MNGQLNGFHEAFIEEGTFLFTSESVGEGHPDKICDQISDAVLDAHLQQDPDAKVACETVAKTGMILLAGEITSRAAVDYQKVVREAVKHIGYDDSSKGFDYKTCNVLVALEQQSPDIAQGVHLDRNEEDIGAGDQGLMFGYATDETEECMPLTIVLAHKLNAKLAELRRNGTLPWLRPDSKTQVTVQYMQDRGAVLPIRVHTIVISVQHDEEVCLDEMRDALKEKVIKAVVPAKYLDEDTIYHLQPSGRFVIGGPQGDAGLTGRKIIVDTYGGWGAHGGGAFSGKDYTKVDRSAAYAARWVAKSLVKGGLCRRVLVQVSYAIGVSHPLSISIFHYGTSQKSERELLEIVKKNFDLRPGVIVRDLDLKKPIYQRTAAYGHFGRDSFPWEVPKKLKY
row,SMILES,IC50 [nM]
1,"O=c1nc(N2CC(F)C2)c2ccc(C(F)(F)F)nc2n1-c1ccccc1Cl [Example 315, 1-(2-chlorophenyl)-4-(3-fluoroazetidin-1-yl)-7-(trifluoromethyl)pyrido[2,3-d]pyrimidin-2(1H)-one]",< 200
2,"O=c1nc(NC2CC3(C2)CS(=O)(=O)C3)c2ccc(C(F)(F)F)nc2n1-c1ccccc1Cl [Example 316, 1-(2-chlorophenyl)-4-((2,2-dioxido-2-thiaspiro[3.3]heptan-6-yl)amino)-7-(trifluoromethyl)pyrido[2,3-d]pyrimidin-2(1H)-one]",200 to 500
3,"COCCNc1nc(=O)n(-c2ccccc2Cl)c2nc(C(F)(F)F)ccc12 [Example 317, 1-(2-chlorophenyl)-4-[(2-methoxyethyl)-amino]-7-(trifluoromethyl)pyrido[2,3-d]-pyrimidin-2(1H)-one]",< 200
4,"N#C[C@H]1C[C@@H](Nc2nc(=O)n(-c3ccccc3Cl)c3nc(C(F)(F)F)ccc23)C1 [Example 318, (1s,3s)-3-((1-(2-chlorophenyl)-2-oxo-7-(trifluoromethyl)-1,2-dihydropyrido[2,3-d]pyrimidin-4-yl)amino)cyclobutane-1-carbonitrile]",< 200
5,CC1(Nc2nc(=O)n(-c3ccccc3Cl)c3nc(C(F)(F)F)ccc23)CCC1 [Example 319],< 200
6,"O=c1nc(NC2CCC2)c2ccc(C(F)(F)F)nc2n1-c1ccccc1Cl [Example 320, 1-(2-chlorophenyl)-4-(cyclobutylamino)-7-(trifluoromethyl)pyrido[2,3-d]-pyrimidin-2(1H)-one]",< 200
7,O=c1nc(N[C@H]2C[C@@H](O)C2)c2ccc(C(F)(F)F)nc2n1-c1ccccc1Cl [Example 321],< 200
8,"O=c1nc(NC2(CO)CC2)c2ccc(C(F)(F)F)nc2n1-c1ccccc1Cl [Example 322, 1-(2-chlorophenyl)-4-{[(hydroxy-methyl)cyclopropyl]amino}-7-(trifluoro-methyl)-pyrido[2,3-d]pyrimidin-2(1H)-one]",< 200
9,"CNc1nc(=O)n(-c2ccccc2C)c2cc(Cl)cc(OC)c12 [Example 329, 7-chloro-5-methoxy-4-(methylamino)-1-(2-methylphenyl)hydroquinazolin-2-one]",< 200
10,"O=c1nc(N[C@H]2C[C@H](O)C2)c2ccc(C(F)(F)F)nc2n1-c1ccccc1Cl [Example 334, 1-(2-chlorophenyl)-4-(((1r,3r)-3-hydroxycyc1obutyl)amino)-7-(trifluoro-methyl)pyrido[2,3-d]pyrimidin-2(1H)-one]",< 200
11,"[2H]C([2H])([2H])N(c1nc(=O)n(-c2ccccc2Cl)c2nc(C(F)(F)F)ccc12)C([2H])([2H])[2H] [Example 339, 4-(bis(methyl-d3)amino)-1-(2-chloro-phenyl)-7-(trifluoromethyl)-pyrido[2,3-d]pyrimidin-2(1H)-one]",< 200
12,"O=c1[nH]c(=O)n(-c2ccc3[nH]cnc3c2)c2cc(Cl)ccc12 [Example 340, 1-(1H-benzo[d]imidazol-5-yl)-7-chloro-quinazoline-2,4(1H,3H)-dione]",200 to 500
13,"C[C@@H]1CCCN1c1nc(=O)n(-c2ccccc2)c2nc(C(F)(F)F)ccc12 [Example 344, 4-((2R)-2-methylpyrrolidin-1-yl)-1-phenyl-7-(trifluoromethyl)pyrido[2,3-d]-pyrimidin-2(1H)-one]",< 200
14,"C[C@H]1CCCN1c1nc(=O)n(-c2ccccc2)c2nc(C(F)(F)F)ccc12 [Example 345, 4-((2S)-2-methylpyrrolidin-1-yl)-1-phenyl-7-(trifluoromethyl)pyrido[2,3-d]-pyrimidin-2(1H)-one]",< 200
15,"O=c1nc(N2CCSC2)c2ccc(C(F)(F)F)nc2n1-c1ccccc1 [Example 346, 1-phenyl-4-(1,3-thiazolidin-3-yl)-7-(trifluoromethyl) pyrido[2,3-d]-pyrimidin-2(1H)-one]",< 200
16,"CNc1nc(=O)n(-c2ccccc2)c2cc(Cl)cc(OCC3CC3)c12 [Example 348, 7-chloro-5-(cyclopropylmethoxy)-4-(methylamino)-1-phenylhydro-quinazolin-2-one]",< 200
17,"O=c1nc(O)c2ccc(Cl)cc2n1-c1ccc2[nH]ncc2c1 [Example 357, 1-(1H-indazol-5-yl)-7-chloro-4-hydroxy-hydroquinazolin-2-one]",1000 to 10000
18,"O=c1[nH]c(=O)n(-c2cnccc2Cl)c2nc(C(F)(F)F)ccc12 [Example 358, 1-(4-chloropyridin-3-yl)-7-(trifluoro-methyl)pyrido[2,3-d]pyrimidine-2,4(1H,3H)-dione]",< 200
19,"O=c1[nH]c(=O)n(-c2cccc3ncsc23)c2nc(C(F)(F)F)ccc12 [Example 363, 1-benzothiazol-7-yl-7-(trifluoromethyl)-pyrido[2,3-d]pyrimidine-2,4(1H,3H)-dione]",< 200
20,"Cc1ncccc1-n1c(=O)[nH]c(=O)c2ccc(C(F)(F)F)nc21 [Example 364, 1-(2-methylpyridin-3-yl)-7-(trifluoro-methyl)pyrido[2,3-d]pyrimidine-2,4(1H,3H)-dione]",< 200
21,"Cc1ccncc1-n1c(=O)[nH]c(=O)c2ccc(C(F)(F)F)nc21 [Example 365, 1-(4-methylpyridin-3-yl)-7-(trifluoro-methyl)pyrido[2,3-d]pyrimidine-2,4(1H,3H)-dione]",< 200

# The remaining lines, values ahead:
row,IC50 [nM],SMILES
1,< 200,CNc1nc(=O)n(-c2ccc(C)nc2)c2nc(C(F)(F)F)ccc12 [Example 314]
2,< 200,"O=c1nc(NCC(F)F)c2ccc(C(F)(F)F)cc2n1-c1cccnc1 [Example 325, 4-[(2,2-difluoroethyl)amino]-1-(pyridin-3-yl)-7-(trifluoromethyl)hydro-quinazolin-2-one]"
3,< 200,"Nc1nc(=O)n(-c2cccnc2)c2cc(C(F)(F)F)ccc12 [Example 327, 4-amino-1-(pyridin-3-yl)-7-(trifluoro-methyl)hydroquinazolin-2-one]"
4,< 200,"CNc1nc(=O)n(-c2ccc3[nH]ncc3c2)c2cc(Cl)ccc12 [Example 328, 1-(1H-indazol-5-yl)-7-chloro-4-(methyl-amino)hydroquinazolin-2-one]"
5,< 200,"CNc1nc(=O)n(-c2cccc(O)c2F)c2cc(Cl)ccc12 [Example 333, 7-chloro-1-(2-fluoro-3-hydroxyphenyl)-4-(methylamino)quinazolin-2(1H)-one]"
6,< 200,"CNc1nc(=O)n(-c2cccnc2)c2cc(C(F)(F)F)ccc12 [Example 341, 4-(methylamino)-1-(pyridin-3-yl)-7-(trifluoromethyl)hydroquinazolin-2-one]"
7,< 200,"[2H]C([2H])([2H])Nc1nc(=O)n(-c2ccccc2Cl)c2cc(Cl)ccc12 [Example 347, 7-chloro-1-(2-chlorophenyl)-4-((methyl-d3)amino)quinazolin-2(1H)-one]"
8,< 200,"CNc1nc(=O)n(-c2ccccc2)c2cc(Cl)cc(OCC(F)(F)F)c12 [Example 350, 7-chloro-4-(methylamino)-1-phenyl-5-(2,2,2-trifluoroethoxy)hydroquinazolin-2-one]"
9,< 200,"CNc1nc(=O)n(-c2ccccc2Br)c2cc(C3CC3)ccc12 [Example 351, 1-(2-bromophenyl)-7-cyclopropyl-4-(methylamino)hydroquinazolin-2-one]"
10,< 200,"CNc1nc(=O)n(-c2ccccc2C)c2cc(C3CC3)ccc12 [Example 352, 7-cyclopropyl-4-(methylamino)-1-(2-methylphenyl)hydroquinazolin-2-one]"
11,< 200,"CNc1nc(=O)n(-c2cccc(C3CC3)c2)c2cc(Cl)ccc12 [Example 353, 7-chloro-1-(3-cyclopropylphenyl)-4-(methylamino)hydroquinazolin-2-one]"
12,< 200,CNc1nc(=O)n(-c2cccc(C(F)F)c2)c2cc(Cl)ccc12 [Example 355]
13,< 200,"O=c1[nH]c(=O)n(-c2cccnc2)c2nc(C(F)(F)F)ccc12 [Example 359, 1-(pyridin-3-yl)-7-(trifluoromethyl)-pyrido[2,3-d]pyrimidine-2,4(1H,3H)-dione]"
14,< 200,"O=c1[nH]c(=O)n(-c2cccnc2)c2cc(C(F)(F)F)ccc12 [Example 362, 1-(pyridin-3-yl)-7-(trifluoromethyl)-1,3-dihydroquinazoline-2,4-dione]"
15,< 200,"[2H]C([2H])([2H])Nc1nc(=O)n(-c2ccccc2)c2nc(C(F)(F)F)ccc12 [Example 366, 4-((methyl-d3)amino)-1-phenyl-7-(trifluoromethyl)pyrido[2,3-d]pyrimidin-2(1H)-one]"
16,< 200,"[2H]C([2H])([2H])Nc1nc(=O)n(-c2ccccc2C)c2cc(C(F)(F)F)ccc12 [Example 367, 4-((methyl-d3)amino)-1-(o-tolyl)-7-(trifluoromethyl)quinazolin-2(1H)-one]"

# Same assay, conditions: L-methionine 500 uM, ATP 500 uM, numeric bound
row,SMILES,IC50 [nM]
1,"CNc1nc(=O)n(-c2ccccc2)c2cc(Cl)cc(OC(C)C)c12 [Example 349, 7-chloro-4-(methylamino)-5-(methyl-ethoxy)-1-phenylhydroquinazolin-2-one]",> 10000
2,"O=c1[nH]c(=O)n(-c2cccc(C(F)F)c2)c2cc(Cl)ccc12 [Example 354, 7-chloro-1-(3-difluoromethylphenyl)-quinazoline-2,4(1H,3H)-dione]",> 10000
3,"O=c1[nH]c(=O)n(-c2ccccc2Cl)c2c(Cl)c(C(F)(F)F)ccc12 [Example 360, 8-chloro-1-(2-chlorophenyl)-7-(trifluoro-methyl)pyrido[2,3-d]pyrimidine-2,4(1H,3H)-dione-1]",> 10000
4,O=c1[nH]c(=O)n(-c2ccccc2)c2c(Cl)c(C(F)(F)F)ccc12 [Example 361],> 10000

# Continued, values first:
row,IC50 [nM],SMILES
1,> 10000,"CNc1nc(=O)n(-c2ccccc2Cl)c2c(Cl)c(C(F)(F)F)ccc12 [Example 342, 8-chloro-1-(2-chlorophenyl)-4-(methylamino)-7-(trifluoromethyl)-hydroquinazolin-2-one]"
2,> 10000,"CNc1nc(=O)n(-c2ccccc2)c2c(Cl)c(C(F)(F)F)ccc12 [Example 343, 8-chloro-4-(methylamino)-1-phenyl-7-(trifluoromethyl)hydroquinazolin-2-one]"
